From US11807693B2 (priority 2014, dated 2023)
Read-outs that look alike come from different tables or passages of the source. Starred links: 1 amine or outer side, 2 acyl side, 3 side chain; linkers in the order of their positions; H or OH if unused. Non-standard residues stand in square brackets, D forms with d. Residues, ends and D or L forms follow the SMILES beside them. ξ: configuration not given here. *: point of attachment. dBip = N[C@H](Cc1ccc(-c2ccccc2)cc1)C(=O)O; Oic = O=C(O)[C@@H]1C[C@@H]2CCCC[C@@H]2N1; Phe(4-Cl) = N[C@@H](Cc1ccc(Cl)cc1)C(=O)O; Phe(4-I) = N[C@@H](Cc1ccc(I)cc1)C(=O)O; γGlu = O=C(O)[C@H](CCC(=O)[*:2])N[*:1]; d(β3hF) = N[C@@H](CC(=O)O)Cc1ccccc1; NMeR = CN[C@@H](CCCNC(=N)N)C(=O)O; Palmitoyl = CCCCCCCCCCCCCCCC(=O)*; Tridecanoyl = CCCCCCCCCCCCC(=O)*; hArg = N=C(N)NCCCC[C@H](N)C(=O)O; Cha = N[C@@H](CC1CCCCC1)C(=O)O; NMeL = CN[C@@H](CC(C)C)C(=O)O; Aic = NC1(C(=O)O)Cc2ccccc2C1; αMeP = C[C@@]1(C(=O)O)CCCN1; β3hP = O=C(O)C[C@@H]1CCCN1; Pip = O=C(O)[C@@H]1CCCCN1; Nle = CCCC[C@H](N)C(=O)O; ξαMeP = CC1(C(=O)O)CCCN1; ξβ3hV = CC(C)C(N)CC(=O)O; AEEA = NCCOCCOCC(=O)O; Aib = CC(C)(N)C(=O)O

Legend:
[1] = In vitro stability in rat liver homogenate; type: in vitro ADME; conditions: tissue homogenate
Procedure, shortened: (§1)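 Apelin peptides spiked to 5 μM final into rat plasma, liver homogenate or kidney homogenate and incubated at 37° C. for up to 4 hr. Aliquots quenched with MeOH containing internal standard, centrifuged, and supernatants analysed by high-resolution LC-MS.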

[2] = In vitro stability in rat plasma; type: in vitro ADME
Procedure, shortened: as §1

[3] = In vitro stability in rat kidney homogenate; type: in vitro ADME; conditions: rat, tissue homogenate
Procedure, shortened: as §1

[4] = target: T1, rat APJ receptor (Rattus norvegicus, UniProt Q9JHG3); experiment: [35S] GTPγS assay, rat APJ receptor; type: biochemical
T1 construct: expressed in transfected cells
T1 sequence (Q9JHG3 1-377): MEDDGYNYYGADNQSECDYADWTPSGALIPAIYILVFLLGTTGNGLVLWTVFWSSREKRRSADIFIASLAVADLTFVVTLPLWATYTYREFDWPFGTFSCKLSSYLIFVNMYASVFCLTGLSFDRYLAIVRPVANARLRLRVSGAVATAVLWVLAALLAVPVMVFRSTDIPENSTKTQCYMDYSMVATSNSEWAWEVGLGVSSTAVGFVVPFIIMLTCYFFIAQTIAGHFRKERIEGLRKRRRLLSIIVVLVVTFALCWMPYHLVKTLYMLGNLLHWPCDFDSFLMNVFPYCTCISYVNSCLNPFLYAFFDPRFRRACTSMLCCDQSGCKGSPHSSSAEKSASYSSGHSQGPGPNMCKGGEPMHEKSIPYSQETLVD
Method: The membranes were incubated with modified peptides in the assay buffer. […] Bound [^35S] GTPγS was separated from free radiolabel by filtration. The filter bound radioactivity was determined by liquid scintillation counting.

| Compound | remaining at 4 h, 5 μM [1] [%] | remaining at 4 h, 5 μM [2] [%] | remaining at 4 h, 5 μM [3] [%] | EC50 ([4]; Table 16, read-out: EC50 Rat APJ Receptor) [nM] | EC50 ([4]; rat APJ receptor, read-out: EC50 Rat APJ Receptor) [nM] |
| --- | --- | --- | --- | --- | --- |
| CCCCCCCCCCCCCCCC(=O)N[C@@H](CCC(=O)NCCOCCOCC(=O)NCCOCCOCC(=O)N[C@H](CCC(N)=O)C(=O)N[C@@H](CCCNC(=N)N)C(=O)N1CCC[C@H]1C(=O)N(C)[C@@H](CCCNC(=N)N)C(=O)N[C@@H](CC1CCCCC1)C(=O)N[C@@H](CO)C(=O)N[C@@H](Cc1c[nH]cn1)C(=O)N[C@@H](CCCCN)C(=O)NCC(=O)N1[C@H](C(=O)N[C@@H](CCCC)C(=O)N2CCC[C@@]2(C)C(=O)N[C@@H](CC(=O)O)Cc2ccccc2)C[C@@H]2CCCC[C@@H]21)C(=O)O [compound 570] ({Palmitoyl-γGlu-AEEA-AEEA}-[dQ]RP[NMeR][Cha]SHKG[Oic][Nle][αMeP][d(β3hF)]-OH) | 32 | > 90 | 11 | – | 19.8 |
| CCCCCCCCCCCCC(=O)N[C@@H](CCC(=O)N[C@@H](CCC(=O)NCCOCCOCC(=O)N[C@H](CCC(N)=O)C(=O)N[C@@H](CCCNC(=N)N)C(=O)N1CCC[C@H]1C(=O)N(C)[C@@H](CCCNC(=N)N)C(=O)N[C@@H](CC1CCCCC1)C(=O)N[C@@H](CO)C(=O)N[C@@H](Cc1c[nH]cn1)C(=O)N[C@@H](CCCCN)C(=O)NCC(=O)N1[C@H](C(=O)N[C@@H](CCCC)C(=O)NC(C)(C)C(=O)N[C@@H](Cc2ccc(Cl)cc2)C(=O)O)C[C@@H]2CCCC[C@@H]21)C(=O)O)C(=O)O [compound 535] ({Tridecanoyl-γGlu-γGlu-AEEA}-[dQ]RP[NMeR][Cha]SHKG[Oic][Nle][Aib][Phe(4-Cl)]-OH) | 3 | 89 | < 1 | – | – |
| CCCCCCCCCCCCC(=O)N[C@@H](CCC(=O)NCCOCCOCC(=O)NCCOCCOCC(=O)N[C@@H](CCC(N)=O)C(=O)N1CCC[C@H]1CC(=O)N(C)[C@@H](CCCNC(=N)N)C(=O)N[C@@H](CC1CCCCC1)C(=O)N[C@@H](CO)C(=O)N[C@@H](Cc1c[nH]cn1)C(=O)N[C@@H](CCCCN)C(=O)NCC(=O)N1[C@H](C(=O)N[C@@H](CCCC)C(=O)NC(C)(C)C(=O)N[C@@H](Cc2ccc(Cl)cc2)C(=O)O)C[C@@H]2CCCC[C@@H]21)C(=O)O [compound 550] ({Tridecanoyl-γGlu-AEEA-AEEA}-Q[β3hP][NMeR][Cha]SHKG[Oic][Nle][Aib][Phe(4-Cl)]-OH) | 2 | > 90 | < 1 | – | – |
| CCCCCCCCCCCCCCCC(=O)N[C@@H](CCC(=O)NCCOCCOCC(=O)NCCOCCOCC(=O)N[C@H](CCC(N)=O)C(=O)N[C@@H](CCCNC(=N)N)C(=O)N1CCC[C@H]1C(=O)N(C)[C@@H](CCCNC(=N)N)C(=O)N[C@@H](CC1CCCCC1)C(=O)N[C@@H](CO)C(=O)N[C@@H](Cc1c[nH]cn1)C(=O)N[C@@H](CCCCN)C(=O)NCC(=O)N1CCCC[C@H]1C(=O)N[C@@H](CCCC)C(=O)N1CCC[C@H]1C(=O)NC1(C(=O)O)Cc2ccccc2C1)C(=O)O [compound 590] ({Palmitoyl-γGlu-AEEA-AEEA}-[dQ]RP[NMeR][Cha]SHKG[Pip][Nle]P[Aic]-OH) | 11 | 86 | 4 | – | – |
| CCCCCCCCCCCCC(=O)N[C@H](CC(=O)O)C(=O)NCCOCCOCC(=O)NCCOCCOCC(=O)N[C@H](CCC(N)=O)C(=O)N[C@@H](CCCNC(=N)N)C(=O)N1CCC[C@H]1C(=O)N(C)[C@@H](CCCNC(=N)N)C(=O)N[C@@H](CC1CCCCC1)C(=O)N[C@@H](CO)C(=O)N[C@@H](Cc1c[nH]cn1)C(=O)N[C@@H](CCCCN)C(=O)NCC(=O)N1[C@H](C(=O)N[C@@H](CCCC)C(=O)NC(C)(C)C(=O)N[C@@H](Cc2ccc(Cl)cc2)C(=O)O)C[C@@H]2CCCC[C@@H]21 [compound 538] (Tridecanoyl-[dD][AEEA][AEEA][dQ]RP[NMeR][Cha]SHKG[Oic][Nle][Aib][Phe(4-Cl)]-OH) | 2 | 73 | < 1 | – | – |
| CCCC[C@H](NC(=O)[C@@H]1CCCN1C(=O)CNC(=O)[C@H](CCCCN)NC(=O)[C@H](Cc1c[nH]cn1)NC(=O)[C@H](CO)NC(=O)[C@](C)(CC(C)C)NC(=O)[C@H](CCCNC(=N)N)N(C)C(=O)[C@@H]1CCCN1C(=O)[C@H](CCCCNC(=N)N)NC(=O)[C@H](CCC(N)=O)NC(C)=O)C(=O)N1CCC[C@H]1C(=O)N[C@@H](Cc1ccc(Cl)cc1)C(=O)O [compound 71] | 35.5 | 0 | 0.1 | – | – |
| CCCCCCCCCCCCC(=O)N[C@@H](CCC(=O)NCCOCCOCC(=O)NCCOCCOCC(=O)N[C@@H](CCCCNC(=N)N)C(=O)N[C@H](CCCNC(=N)N)C(=O)N[C@@H](CCC(N)=O)C(=O)N[C@@H](CCCC)C(=O)N1CCC[C@H]1C(=O)N[C@H](CCCNC(=N)N)C(=O)N(C)[C@@H](CC(C)C)C(=O)N[C@@H](CO)C(=O)N[C@@H](C)C(=O)N[C@@H](CCCCN)C(=O)NCC(=O)N1[C@H](C(=O)N[C@@H](Cc2ccc(I)cc2)C(=O)N2CCC[C@H]2C(=O)N[C@H](Cc2ccc(-c3ccccc3)cc2)C(=O)O)C[C@@H]2CCCC[C@@H]21)C(=O)O [compound 328] ({Tridecanoyl-γGlu-AEEA-AEEA}-[hArg][dR]Q[Nle]P[dR][NMeL]SAKG[Oic][Phe(4-I)]P[dBip]-OH) | 0 | 76 | 55 | – | – |
| CCCCCCCCCCCCC(=O)N[C@@H](CCC(=O)NCCOCCOCC(=O)NCCOCCOCC(=O)N[C@@H](CCC(N)=O)C(=O)N[C@@H](CCCNC(=N)N)C(=O)N1CCCC1(C)C(=O)N[C@@H](CCCCNC(=N)N)C(=O)NC(CC(=O)N[C@@H](CO)C(=O)N[C@@H](Cc1c[nH]cn1)C(=O)N[C@@H](CCCCN)C(=O)NCC(=O)N1[C@H](C(=O)N[C@@H](CCCC)C(=O)N2CCC[C@H]2C(=O)N[C@@H](Cc2ccc(Cl)cc2)C(=O)O)C[C@@H]2CCCC[C@@H]21)C(C)C)C(=O)O (stereo partly drawn) [compound 392] ({Tridecanoyl-γGlu-AEEA-AEEA}-QR[ξαMeP][hArg][ξβ3hV]SHKG[Oic][Nle]P[Phe(4-Cl)]-OH) | 82 | 73 | < 1 | – | – |

Continued, values first:

| remaining at 4 h, 5 μM [1] [%] | remaining at 4 h, 5 μM [2] [%] | remaining at 4 h, 5 μM [3] [%] | EC50 ([4]; Table 16, read-out: EC50 Rat APJ Receptor) [nM] | EC50 ([4]; rat APJ receptor, read-out: EC50 Rat APJ Receptor) [nM] | Compound |
| --- | --- | --- | --- | --- | --- |
| 39 | 79 | 2.5 | 3.75 | – | CCCCCCCCCCCCC(=O)N[C@@H](CCC(=O)NCCOCCOCC(=O)NCCOCCOCC(=O)N[C@@H](CCC(N)=O)C(=O)N[C@@H](CCCCNC(=N)N)C(=O)N1CCC[C@H]1C(=O)N(C)[C@@H](CCCNC(=N)N)C(=O)N[C@@H](CC1CCCCC1)C(=O)N[C@@H](CO)C(=O)N[C@@H](Cc1c[nH]cn1)C(=O)N[C@@H](CCCCN)C(=O)NCC(=O)N1[C@H](C(=O)N[C@@H](CCCC)C(=O)N2CCC[C@H]2C(=O)N[C@@H](Cc2ccc(Cl)cc2)C(=O)O)C[C@@H]2CCCC[C@@H]21)C(=O)O [compound 362] ({Tridecanoyl-γGlu-AEEA-AEEA}-Q[hArg]P[NMeR][Cha]SHKG[Oic][Nle]P[Phe(4-Cl)]-OH) |
| 9 | 88 | < 1 | – | – | CCCCCCCCCCCCC(=O)N[C@@H](CCC(=O)NCCOCCOCC(=O)NCCOCCOCC(=O)N[C@@H](CCCCNC(=N)N)C(=O)N[C@@H](CCC(N)=O)C(=O)N[C@@H](CCCCNC(=N)N)C(=O)N1CCC[C@H]1C(=O)N[C@@H](CCCCNC(=N)N)C(=O)N[C@@H](CC1CCCCC1)C(=O)N[C@@H](CO)C(=O)N[C@@H](Cc1c[nH]cn1)C(=O)N[C@@H](CCCCN)C(=O)NCC(=O)N1[C@H](C(=O)N[C@@H](CCCC)C(=O)N2CCC[C@H]2C(=O)N[C@@H](Cc2ccc(Cl)cc2)C(=O)O)C[C@@H]2CCCC[C@@H]21)C(=O)O [compound 490] ({Tridecanoyl-γGlu-AEEA-AEEA}-[hArg]Q[hArg]P[hArg][Cha]SHKG[Oic][Nle]P[Phe(4-Cl)]-OH) |
| 19 | > 90 | < 1 | – | – | CCCCCCCCCCCCC(=O)N[C@@H](CCC(=O)NCCOCCOCC(=O)NCCOCCOCC(=O)N[C@H](CCC(N)=O)C(=O)N[C@@H](CCCNC(=N)N)C(=O)N1CCCC[C@H]1C(=O)N(C)[C@@H](CCCNC(=N)N)C(=O)N[C@@H](CC1CCCCC1)C(=O)N[C@@H](CO)C(=O)N[C@@H](Cc1c[nH]cn1)C(=O)N[C@@H](CCCCN)C(=O)NCC(=O)N1[C@H](C(=O)N[C@@H](CCCC)C(=O)NC(C)(C)C(=O)N[C@@H](Cc2ccc(Cl)cc2)C(=O)O)C[C@@H]2CCCC[C@@H]21)C(=O)O [compound 517] ({Tridecanoyl-γGlu-AEEA-AEEA}-[dQ]R[Pip][NMeR][Cha]SHKG[Oic][Nle][Aib][Phe(4-Cl)]-OH) |
| 1.5 | 34.5 | 0.5 | – | – | CCCCCCCCCCCCC(=O)N[C@@H](CCC(=O)NCCOCCOCC(=O)NCCOCCOCC(=O)N[C@@H](CCC(N)=O)C(=O)N[C@@H](CCCNC(=N)N)C(=O)N1CCC[C@H]1C(=O)N(C)[C@@H](CCCNC(=N)N)C(=O)N[C@@H](CC1CCCCC1)C(=O)N[C@@H](CO)C(=O)N[C@@H](Cc1c[nH]cn1)C(=O)N[C@@H](CCCCN)C(=O)NCC(=O)N1CCC[C@H]1C(=O)N[C@@H](CCCC)C(=O)N1CCC[C@H]1C(=O)N[C@@H](Cc1ccc(Cl)cc1)C(=O)O)C(=O)O [compound 361] ({Tridecanoyl-γGlu-AEEA-AEEA}-QRP[NMeR][Cha]SHKGP[Nle]P[Phe(4-Cl)]-OH) |
